# Entries after “also recorded” stand apart in the source; their conditions may differ.
# Experiments:
# NK1R = assay: Neuropeptide response in bladders of CY-17 infected Nlrp3^−/− mice treated with NK1R antagonist (immunohistochemistry, qRT-PCR); format: in vivo; settings: for Nk1r expression (qRT-PCR) / Ppt-1 expression (qRT-PCR): 1 mg/kg i.p.
# Text: Mice were bred and housed in the specific pathogen-free MIG animal facilities (Lund, Sweden) with free access to food and water. Female C57BL/6 mice or Il1b^−/−, Nlrp3^−/−, Asc^−/− mice were used for experiments at 9-15 weeks of age.
# Tissues were embedded in O.C.T. compound (VWR) and 7-μm-thick fresh cryosections were mounted on positively charged microscope slides (Superfrost/Plus; Thermo Fisher Scientific) Sections were permeabilized (0.25% Triton X-100, 5% FBS), blocked (5% FBS) and stained: rabbit anti-NK1R (1:50, SC-15323, SantaCruz), rabbit anti-substance p (1:100, ORB11399, Biorbyt), rabbit anti-orexin receptor 2 (1:300, AB104701, Abcam), rabbit anti-GALR2 (1:50, AB136264, Abcam) or rabbit anti-TAS2R43 (1:100, AB65513, Abcam). Antibodies were appropriately labeled using goat anti-rabbit secondary antibodies conjugated to Alexa 488 (1:200 in 0.025% Triton X-100, 5% FBS) for 1 h in RT before nuclear counterstaining using Draq5 (1:1000, Abcam). Sections were imaged by laser scanning confocal microscopy (MSM510 META confocal microscope, Carl Zeiss) or by fluorescence microscopy (AX60, Olympus Optical).
# Complementary DNA was reverse-transcribed from 0.2-1 μg of mice total RNA using SuperScript™ III First-Strand Synthesis System for RT-PCR (Invitrogen), and quantified in real time using primer pairs against Mus musculus Nk1r, Ppt-1^37 and Galr2 and QuantiTect® SYBR® Green PCR kits (Qiagen) on a Rotor Gene Q (Qiagen).
# qRT-PCR reactions were run in technical duplicates and gene expression was analyzed based on ΔΔCT comparison to Mus musculus GAPDH.
# The severity of acute cystitis after 24 hours or seven days was examined and neuropeptide expression and disease severity quantified by immunohistochemistry and qRT-PCR of whole bladder RNA extracts, using primers specific for NK1R, Ppt-1 or Galr2 as described above.
# HTB-9 cells = assay: Pre-treatment of HTB-9 bladder epithelial cells before CY17 infection (confocal imaging, ELISA); format: cell-based, human
# Method: Cells were grown on 8-well chamber slides (6×10^4 cells/well, Thermo Fischer Scientific) or in 6-well plates (6×10^5 cells/well) for 16 hours in media supplemented with 10% FBS. Media were removed, and cells were washed with PBS before adding medium without FBS. Cells were infected with bacteria diluted to appropriate concentration in PBS and incubated for one or four hours at 37° C. with 5% CO2.
# The two cell types were first infected with increasing concentrations of the acute cystitis strain E. coli CY-17 (10^2-10^4 cfu/ml) for 1 to 4 hours. NK1R and SP expression was used as a read out of the cellular response. […] A concentration of 10^4 cfu/ml of CY-17 and four hours of infection was chosen for further studies. Under these conditions, there was little cytotoxicity. To further characterize the neuropeptide response to bladder infection, the in vitro analysis was extended to include GALR2, OrxR2 and TAS2R43. Confocal microscopy was used in this instance. Infected cells were fixed (3.7% formaldehyde, 15 min), permeabilized (0.25% triton X-100, 5% FBS, 10 min), blocked (5% FBS, 1 h at RT), incubated overnight with primary antibodies in 5% FBS: Anti-NK1R (1:100, SC-15323, Santa Cruz), anti-SP, (1:200, ORB11399, Biorbyt), anti-orexin receptor 2, (1:200, AB10470, Abcam), anti-TAS2R43, (1:200, AB65513, Abcam), and anti-GALR2 antibodies (1:100, AB136264, Abcam). Appropriate fluorescently labeled secondary antibodies were used (Alexa Fluor® 488 goat anti-rabbit IgG, A-11034; Life Technologies, (1 hour at Room Temperature). After nuclear staining (DRAQ5, 1:1000, Abcam) slides were mounted (Fluoromount, Sigma-Aldrich), imaged by laser scanning confocal microscopy (MSM510 META confocal microscope, Carl Zeiss) and quantified by ImageJ software 1.46r (NIH).
# HTB-9 cells and differentiated SH-SY5Y cells were pre-treated with SR140333, or IL-1RA Anakinra (500 ng/ml) for 30 minutes before infection with CY17 (10^4 cfu/ml, four hours), or treatment with exogenous recombinant SP (R&D System) or IL-1β (Abnova) (20 ng/ml, four hours). After infection, cells were infected with CY17 and the NK1R, SP and IL-1β response was quantified by confocal imaging. IL-1β- and SP secretion was quantified by ELISA, in culture supernatants. In nerve- and bladder epithelial cells, SR140333 inhibited the SP/NK1R response to infection, consistent with an autocrine activation loop involving SP/NK1R as shown by confocal imaging (FIG. 10a). […] SP activated IL-1β expression and secretion in bladder epithelial cells but had no effect on IL-1β on nerve cells. (*=P<0.05, **=P<0.01, ***=P<0.001, Two-tailed t-test for confocal imaging data and Mann-Whitney U-test for ELISAs.
# Furthermore, to examine if the effects of NK1R inhibition can be generalized, we used two additional NK1R antagonists (CP99994 and L703.303). HTB-9 cells and differentiated SH-SY5Y cells were pre-treated with SR140333, CP99994, L-703.606 or IL-1RA Anakinra (500 ng/ml) for 30 minutes before infection with CY17 (10^4 cfu/ml, four hours), or treatment with exogenous recombinant SP (R&D System) or IL-1β (Abnova) (20 ng/ml, four hours).
# [1] = Nlrp3^−/− mice, CY-17 infection, SR140333 i.p. 1 mg/kg, vs untreated infected mice, 1 mg/kg
# [2] = pre-treated before CY17 infection
smiles,measurement,setting,value
"CC(C)Oc1cccc(CC(=O)N2CCC[C@](CC[N+]34CCC(c5ccccc5)(CC3)CC4)(c3ccc(Cl)c(Cl)c3)C2)c1.[Cl-] [SR140333, 1-[2-[(3S)-3-(3,4-Dichlorophenyl)-1-[2-[3-(1-methylethoxy)phenyl]acetyl]-3-piperidinyl]ethyl]-4-phenyl-1-azoniabicyclo[2.2.2]octane chloride]",mucosal NK1R response to infection (NK1R staining),NK1R; [1],reduced; also recorded: Inhibition
same,mucosal SP response to infection (SP staining),NK1R; [1],reduced; also recorded: Attenuated
same,Galr2 expression (qRT-PCR),"NK1R; either treatment (prophylactic or post-infection), p=0.19 and p=0.63",no significant effect; also recorded: not altered
same,GALR2 staining,"NK1R; infected mice, n=4 mice per condition",does not effect
same,Nk1r expression (qRT-PCR),"NK1R; post-infection treatment, p<0.01",reduced
same,Ppt-1 expression (qRT-PCR),"NK1R; post-infection treatment, p<0.01, 1 mg/kg",affected; also recorded: Inhibition
same,Nk1r expression (qRT-PCR),"NK1R; prophylactic treatment (pretreatment), p<0.05",reduced
same,Ppt-1 expression (qRT-PCR),"NK1R; prophylaxis (pretreatment), p=0.06",less efficient
same,SP/NK1R response to infection (confocal imaging),"HTB-9 cells; pre-treated 30 minutes before CY17 (10^4 cfu/ml, four hours)",inhibited
same,"IL-1β secretion (ELISA, culture supernatants)",HTB-9 cells; [2],inhibited; also recorded: decreased
same,"SP secretion (ELISA, culture supernatants)",HTB-9 cells; [2],decreased

# — patent US20250082625A1, “NOVEL THERAPY” (priority 2016, published 2025)
